Test [1] has as its target α-amylase. The test is described as follows: In vitro α-amylase inhibition assay. The format is biochemical. The following applies: read-out: α-Amylase activity IC50 ± SEM; mean ± SEM, triplicate; iodine starch method, pH 6.8, 50 °C, 30 minutes.
For test [2], the system named is Escherichia coli. The test is described as follows: Antibacterial disc diffusion assay, Escherichia coli. The class given is cell-based. The settings on record: for Antibacterial zone of inhibition, Escherichia coli: disc diffusion, samples 100 μM, kanamycin 10 μM, 24 hours at 37 °C. In general terms: Agar diffusion results depend on both activity and mobility in agar.

Test [3] has as its system Staphylococcus aureus. The test is described as follows: Antibacterial disc diffusion assay, Staphylococcus aureus. The class given is cell-based. The following applies: for Antibacterial zone of inhibition, Staphylococcus aureus: disc diffusion, samples 100 μM, kanamycin 10 μM, 24 hours at 37 °C.
The test system of test [4] is Pseudomonas aeruginosa. The experiment in a line: Antibacterial disc diffusion assay, Pseudomonas aeruginosa. The class given is cell-based. The following applies: samples 100 μM, kanamycin 10 μM, 24 hours at 37 °C.
Test [5] concerns Bacillus subtilis. The experiment in a line: Antibacterial disc diffusion assay, Bacillus subtilis. The format is cell-based. The settings on record: samples 100 μM, kanamycin 10 μM, 24 hours at 37 °C.
The test system of test [6] is Candida albicans. The test is described as follows: Antifungal disc diffusion assay, Candida albicans. The class given is cell-based. The settings on record: read-out: Antifungal zone of inhibition, Candida albicans.
Test [7] addresses urease (Canavalia ensiformis, UniProt P07374). The settings on record: read-out: Urease activity IC50 ± SEM; pH 8.2.

Structures are written as SMILES. “Also recorded” adds a separate entry of the source.

Chain of urease (P07374 whole entry, looked up): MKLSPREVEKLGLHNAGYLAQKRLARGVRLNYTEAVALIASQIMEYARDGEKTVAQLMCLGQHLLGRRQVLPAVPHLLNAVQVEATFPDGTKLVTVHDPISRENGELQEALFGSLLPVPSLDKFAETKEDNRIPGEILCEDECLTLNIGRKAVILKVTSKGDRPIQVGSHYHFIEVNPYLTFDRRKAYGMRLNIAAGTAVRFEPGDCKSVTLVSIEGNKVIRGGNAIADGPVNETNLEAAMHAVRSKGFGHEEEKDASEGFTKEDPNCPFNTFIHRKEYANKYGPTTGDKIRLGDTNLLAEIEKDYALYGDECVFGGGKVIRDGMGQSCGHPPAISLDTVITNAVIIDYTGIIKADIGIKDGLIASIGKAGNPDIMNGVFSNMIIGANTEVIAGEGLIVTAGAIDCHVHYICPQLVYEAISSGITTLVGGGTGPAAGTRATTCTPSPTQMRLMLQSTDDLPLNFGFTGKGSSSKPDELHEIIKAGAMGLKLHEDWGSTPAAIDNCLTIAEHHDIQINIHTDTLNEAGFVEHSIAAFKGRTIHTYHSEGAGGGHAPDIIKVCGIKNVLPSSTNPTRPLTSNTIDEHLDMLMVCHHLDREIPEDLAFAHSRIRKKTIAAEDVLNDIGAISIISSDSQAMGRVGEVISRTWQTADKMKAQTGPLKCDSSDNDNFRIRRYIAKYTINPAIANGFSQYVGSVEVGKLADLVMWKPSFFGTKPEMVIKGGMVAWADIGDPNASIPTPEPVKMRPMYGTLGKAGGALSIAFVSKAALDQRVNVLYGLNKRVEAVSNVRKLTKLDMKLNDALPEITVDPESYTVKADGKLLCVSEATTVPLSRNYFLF

The IC50 is the concentration at which inhibition is half-maximal. As to `Cc1ccc(C(=O)N(C(=O)c2ccc(C)cc2)C(=S)N2N=C(c3ccc(F)cc3)CC2c2ccc(F)cc2)cc1` (stereo not shown) [Compound 5a, N-(3,5-Bis(4-fluorophenyl)-4,5-dihydro-1H-pyrazole-1-carbonothioyl)-4-methyl-N-(4-methylbenzoyl)benzamide], in test [1], the IC50 came out at 118.4 ± 0.64 µM.

As to `Cc1ccc(C(=O)N(C(=O)c2ccc(C)cc2)C(=S)N2N=C(c3ccc(F)cc3)CC2c2cccc(F)c2)cc1` (stereo not shown) [Compound 5b, N-(5-(3-Fluorophenyl)-3-(4-fluorophenyl)-4,5-dihydro-1H-pyrazole-1-carbonothioyl)-4-methyl-N-(4-methylbenzoyl)benzamide], the IC50 in test [1] is 99.3 ± 0.62 µM. As usually defined, the zone of inhibition is the size of the clear area around the sample on an inoculated plate. As for `Cc1ccc(C(=O)N(C(=O)c2ccc(C)cc2)C(=S)N2N=C(c3ccccc3)CC2c2ccc(F)cc2)cc1` (stereo not shown) [Compound 5d, N-(5-(4-Fluorophenyl)-3-phenyl-4,5-dihydro-1H-pyrazole-1-carbonothioyl)-4-methyl-N-(4-methylbenzoyl)benzamide], the zone of inhibition at 100 µM in test [2] (Escherichia coli, 24 h, read-out: Antibacterial zone of inhibition, Escherichia coli) stood at 7 mm; in test [3] (Staphylococcus aureus, 24 h, read-out: Antibacterial zone of inhibition, Staphylococcus aureus) it was 10 mm. In test [2], the “Antibacterial zone of inhibition, Escherichia coli” value is given as “significant antibacterial activity; also recorded: excellent bacterial inhibition zone”. Besides, the “Antibacterial zone of inhibition, Staphylococcus aureus” value in test [3] is “significant antibacterial activity; also recorded: excellent bacterial inhibition zone”. The half-inhibitory concentration (IC50) in test [1] was 104 ± 3.18 µM. With `Cc1ccc(C(=O)N(C(=O)c2ccc(C)cc2)C(=S)N2N=C(c3ccc(Br)cc3)CC2c2ccc(F)cc2)cc1` (stereo not shown) [Compound 5e, N-(3-(4-Bromophenyl)-5-(4-fluorophenyl)-4,5-dihydro-1H-pyrazole-1-carbonothioyl)-4-methyl-N-(4-methylbenzoyl)benzamide], in test [1], the IC50 turned out to be 97.4 ± 1.53 µM. In the case of `Cc1ccc(C(=O)N(C(=O)c2ccc(C)cc2)C(=S)N2N=C(c3ccc(Br)cc3)CC2c2cccc(F)c2)cc1` (stereo not shown) [Compound 5f, N-(3-(4-Bromophenyl)-5-(3-fluorophenyl)-4,5-dihydro-1H-pyrazole-1-carbonothioyl)-4-methyl-N-(4-methylbenzoyl)benzamide], the IC50 in test [1] worked out at 90.3 ± 1.08 µM. Regarding `Cc1ccc(C(=O)N(C(=O)c2ccc(C)cc2)C(=S)N2N=C(c3ccc(Cl)cc3)CC2c2ccc(Cl)cc2)cc1` (stereo not shown) [Compound 5g, N-(3,5-Bis(4-chlorophenyl)-4,5-dihydro-1H-pyrazole-1-carbonothioyl)-4-methyl-N-(4-methylbenzoyl)benzamide], in test [1], the IC50 was 131 ± 1.56 µM. With `Cc1ccc(C(=O)N(C(=O)c2ccc(C)cc2)C(=S)N2N=C(c3ccccc3)CC2c2ccc(C)cc2)cc1` (stereo not shown) [Compound 5h, 4-Methyl-N-(4-methylbenzoyl)-N-(3-phenyl-5-(p-tolyl)-4,5-dihydro-1H-pyrazole-1-carbonothioyl)benzamide], the IC50 in test [1] turned out to be 121 ± 3.75 µM. With `Cc1ccc(C(=O)N(C(=O)c2ccc(C)cc2)C(=S)N2N=C(c3ccc(C)cc3)CC2c2ccc(F)cc2)cc1` (stereo not shown) [Compound 5i, N-(5-(4-Fluorophenyl)-3-(p-tolyl)-4,5-dihydro-1H-pyrazole-1-carbonothioyl)-4-methyl-N-(4-methylbenzoyl)benzamide], the IC50 in test [1] came out at 114.6 ± 0.28 µM.

Turning to `Cc1ccc(C(=O)N(C(=O)c2ccc(C)cc2)C(=S)N2N=C(c3ccc(C)cc3)CC2c2ccc(Cl)cc2)cc1` (stereo not shown) [Compound 5j, N-(5-(4-Chlorophenyl)-3-(p-tolyl)-4,5-dihydro-1H-pyrazole-1-carbonothioyl)-4-methyl-N-(4-methylbenzoyl)benzamide], the IC50 in test [1] stood at 110 ± 1.56 µM. Turning to `NC[C@H]1O[C@H](O[C@H]2[C@H](O)[C@@H](O[C@H]3O[C@H](CO)[C@@H](O)[C@H](N)[C@H]3O)[C@H](N)C[C@@H]2N)[C@H](O)[C@@H](O)[C@@H]1O` [Kanamycin, reference compound], the “Antibacterial zone of inhibition, Escherichia coli” value in test [2] was 16 mm. Further, the “Antibacterial zone of inhibition, Staphylococcus aureus” value in test [3] is reported as 18 mm. Moreover, the “Antibacterial zone of inhibition, Pseudomonas aeruginosa” value in test [4] came to 20 mm. The “Antibacterial zone of inhibition, Bacillus subtilis” value in test [5] is 22 mm. With `CN(C/C=C/C#CC(C)(C)C)Cc1cccc2ccccc12` [Terbinafine], the zone of inhibition at 10 µM in test [6] was 20 mm.

Take `NC(N)=S` [Thiourea]: the IC50 in test [7] stood at 9.8 ± 0.1 µM.

These data come from PMC10759180 (RSC Advances, 2024).
